Reference: publication PMC9918900, “New Succinimide–Thiazolidinedione Hybrids as Multitarget Antidiabetic Agents: Design, Synthesis, Bioevaluation, and Molecular Modelling Studies” (Molecules, 2023)
Where two headings read alike, the source gives them in different places.

Legend:
α-glucosidase = assay: in vitro α-glucosidase inhibitory activity; type: biochemical, Homo sapiens
Experimental: The inhibitory analyses for α-glucosidase were carried out in accordance with the protocols reported in the literature; the inhibitory activities of the synthesized hybrids were calculated utilizing screening assay tools.

α-amylase = biological target: T1, α-amylase (Homo sapiens, UniProt P04746); assay: in vitro α-amylase inhibitory activity; type: biochemical
T1 sequence (P04746 16-511): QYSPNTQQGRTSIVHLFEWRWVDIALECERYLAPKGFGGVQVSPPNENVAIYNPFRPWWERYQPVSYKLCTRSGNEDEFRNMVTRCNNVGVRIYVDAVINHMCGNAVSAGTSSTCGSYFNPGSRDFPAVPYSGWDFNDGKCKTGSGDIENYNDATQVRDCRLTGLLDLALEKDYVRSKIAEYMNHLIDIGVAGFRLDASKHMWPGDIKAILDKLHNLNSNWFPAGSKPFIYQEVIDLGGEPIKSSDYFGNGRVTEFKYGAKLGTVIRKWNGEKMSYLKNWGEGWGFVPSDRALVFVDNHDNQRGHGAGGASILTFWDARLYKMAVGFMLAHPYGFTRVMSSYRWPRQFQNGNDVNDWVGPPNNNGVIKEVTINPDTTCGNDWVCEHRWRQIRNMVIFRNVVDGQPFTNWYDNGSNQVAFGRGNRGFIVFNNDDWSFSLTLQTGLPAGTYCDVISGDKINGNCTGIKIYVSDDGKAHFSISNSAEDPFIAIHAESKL
Experimental: The test samples were added in alpha-amylase solution. The enzyme solution was prepared with enzyme and buffer solution. The mixture of the samples and enzyme was then incubated. Then, starch and dinitrosalicylic acid solution was added. The same was performed for both test compounds and the standard drug. […] The percent alpha-amylase inhibition activity and its IC50 values were calculated and confirmed as per the previous procedure.

PTP1B = biological target: T2, PTP1B (Homo sapiens, UniProt P18031); assay: PTP1B assay (pNPP substrate); type: biochemical
T2 sequence (P18031 1-435): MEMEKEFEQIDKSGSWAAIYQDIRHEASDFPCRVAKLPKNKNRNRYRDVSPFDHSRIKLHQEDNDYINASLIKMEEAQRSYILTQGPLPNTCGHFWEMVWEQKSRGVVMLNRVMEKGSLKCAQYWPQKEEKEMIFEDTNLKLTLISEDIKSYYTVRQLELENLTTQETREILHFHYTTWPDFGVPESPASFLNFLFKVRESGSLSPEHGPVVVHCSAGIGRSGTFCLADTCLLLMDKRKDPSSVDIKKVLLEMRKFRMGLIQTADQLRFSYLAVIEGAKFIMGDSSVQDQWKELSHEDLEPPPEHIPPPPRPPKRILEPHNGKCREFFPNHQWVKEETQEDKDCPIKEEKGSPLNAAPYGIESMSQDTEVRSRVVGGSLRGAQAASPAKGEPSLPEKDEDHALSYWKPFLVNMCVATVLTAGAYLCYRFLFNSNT
Experimental: The aforementioned newly synthesize succinimides and thiazolidinedione hybrids were tested against the PTP1B enzyme to determine their ability to inhibit the negative regulation of insulin as well as leptin signaling. The PTP1B test was performed with a small modification to the method described in the publications. The enzyme efficiency was evaluated using […] (pNPP) as a substrate. For the buffer solution, 0.5 millimolar (mM) of ethylene diamine tetraacetic acid (EDTA), 1 mM of mercaptoethanol, 0.55 mM of dithiothreitol (DTT), and 12.49 mM of TRIS hydrochloride (ph = 7.4) were used. The experiment was carried out by mixing 10.0 μL of the test compound solutions with 20.0 μL of the enzyme (1 μg/mL), subsequently injecting 40.0 μL of 4.0 mM 4-nitrophenyl dihydrogen phosphate in 130.5 μL of the prescribed buffer in a microplate well at 37 °C for 10 min. pNP was formed during the enzymatic process, which was monitored for 30 min. The IC50 values were derived using a non-linear regression analysis of the fraction of the product generated vs. the log of the inhibitory concentration.

human DPP-4 enzyme = biological target: T3, human DPP-4 enzyme (Homo sapiens, UniProt P27487); assay: DPP-4 activity bioassay; type: biochemical; details: for inhibition at 31.25 µM / inhibition at 62.5 µM / inhibition at 125 µM / inhibition at 250 µM: read-out: DPP4 (inhibition) (converted); for inhibition at 500 µM: read-out: DPP4 (inhibition); for IC50: read-out: IC50 DPP4
T3 construct: purchased
Experimental: All succinimides and thiazolidinedione hybrids were tested for DPP-4 inhibitory effects on a human DPP-4 enzyme using the methodology published before. The DPP-4 kit was used to measure the inhibition. L-thiazolidine (P32/98) was included as a reference. The hybrids and DPP-4 enzyme were both adulterated 1/50 in the assay buffer (PH = 7.4, 25 mM Tris). Following that, a microplate well was filled with 5 μL of assay buffer, 3 μL of enzyme solution, and 2 μL of adequately diluted test chemical solutions. After a 12-min incubation period at 37.5 °C, a diluted substrate solution of 25 μL was added into the solution. A multi-mode reader was used to assess the fluorescence. […] PRISM5 was used to calculate the IC50 values and compare the inhibition ratio to the control without the inhibitor.

[1] = 31.25 µM, read-out: % α-Amylase Inhibition (converted)
[2] = 62.5 µM, read-out: % α-Amylase Inhibition (converted)
[3] = 125 µM, read-out: % α-Amylase Inhibition (converted)
[4] = 250 µM, read-out: % α-Amylase Inhibition (converted)
[5] = 500 µM, read-out: % α-Amylase Inhibition
[6] = read-out: % α-Amylase Inhibition

T3 sequence (P27487 whole entry): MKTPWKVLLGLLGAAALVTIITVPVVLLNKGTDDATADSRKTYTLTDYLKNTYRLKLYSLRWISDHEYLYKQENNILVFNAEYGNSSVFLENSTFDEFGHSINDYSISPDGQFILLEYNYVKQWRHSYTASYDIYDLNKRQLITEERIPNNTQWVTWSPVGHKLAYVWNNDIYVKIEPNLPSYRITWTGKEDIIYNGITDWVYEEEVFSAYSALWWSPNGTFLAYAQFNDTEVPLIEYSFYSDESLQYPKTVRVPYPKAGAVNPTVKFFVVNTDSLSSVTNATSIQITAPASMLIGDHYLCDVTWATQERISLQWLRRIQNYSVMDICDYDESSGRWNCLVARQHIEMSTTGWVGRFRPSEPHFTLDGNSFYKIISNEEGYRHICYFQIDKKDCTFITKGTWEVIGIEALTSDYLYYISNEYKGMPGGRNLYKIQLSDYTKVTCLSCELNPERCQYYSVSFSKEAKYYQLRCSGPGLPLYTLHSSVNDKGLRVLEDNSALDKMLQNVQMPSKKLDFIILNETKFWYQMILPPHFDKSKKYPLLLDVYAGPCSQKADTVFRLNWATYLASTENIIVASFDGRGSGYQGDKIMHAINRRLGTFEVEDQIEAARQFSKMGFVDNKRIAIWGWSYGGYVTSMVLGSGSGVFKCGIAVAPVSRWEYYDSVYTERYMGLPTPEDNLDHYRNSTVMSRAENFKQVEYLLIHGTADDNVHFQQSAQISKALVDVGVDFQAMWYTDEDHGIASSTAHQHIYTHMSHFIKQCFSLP

Row | Structure (SMILES) | IC50 (α-glucosidase) [µM] | % α-Glucosidase Inhibition (α-glucosidase; 31.25 µM) [%] | % α-Glucosidase Inhibition (α-glucosidase; 62.5 µM) [%] | % α-Glucosidase Inhibition (α-glucosidase; 125 µM) [%] | % α-Glucosidase Inhibition (α-glucosidase; 250 µM) [%] | % α-Glucosidase Inhibition (α-glucosidase; 500 µM) [%] | IC50 (α-amylase) [µM] | inhibition at 31.25 µM (α-amylase; [1]) [%] | inhibition at 62.5 µM (α-amylase; [2]) [%] | inhibition at 125 µM (α-amylase; [3]) [%] | inhibition at 250 µM (α-amylase; [4]) [%] | inhibition at 500 µM (α-amylase; [5]) [%] | IC50 (PTP1B) [µM] | inhibition at 31.25 µM (PTP1B) [%] | inhibition at 62.5 µM (PTP1B) [%] | inhibition at 125 µM (PTP1B) [%] | inhibition at 250 µM (PTP1B) [%] | inhibition at 500 µM (PTP1B) [%] | inhibition at 31.25 µM (human DPP-4 enzyme) [%] | inhibition at 62.5 µM (human DPP-4 enzyme) [%] | also measured
1 | C[C@H]1O[C@H](O[C@H]2[C@H](O)[C@@H](O)[C@@H](O[C@H]3[C@H](O)[C@@H](O)C(O)O[C@@H]3CO)O[C@@H]2CO)[C@H](O)[C@@H](O)[C@@H]1N[C@H]1C=C(CO)[C@@H](O)[C@H](O)[C@H]1O (some centres unmarked) [Acarbose, acarbose, reference compound] |  | 71.22 ± 0.47 | 76.44 ± 0.28 | 80.90 ± 1.11 |  | 94.40 ± 0.03 |  |  |  |  |  |  |  |  |  |  |  |  |  |  | inhibition at 31.25 µM (α-amylase; [6]): 70.8%; inhibition at 62.5 µM (α-amylase; [6]): 75.4%; inhibition at 125 µM (α-amylase; [6]): 80.6%; inhibition at 250 µM (α-amylase; [6]): 86.5%; inhibition at 500 µM (α-amylase; [6]): 93.1 ± 1.04%
2 | C[C@H]1[C@H](C)CC[C@]2(C(=O)O)CC[C@]3(C)C(=CC[C@@H]4[C@@]5(C)CC[C@H](O)C(C)(C)[C@@H]5CC[C@]43C)[C@H]12 [Ursolic acid, ursolic acid, reference compound] |  |  |  |  |  |  |  |  |  |  |  |  |  | 71.8 | 76.4 | 81.6 | 87.5 | 94.1 ± 1.04 |  |  | 

Further lines, with some results ahead:

Row | IC50 (α-glucosidase) [µM] | % α-Glucosidase Inhibition (α-glucosidase; 31.25 µM) [%] | % α-Glucosidase Inhibition (α-glucosidase; 62.5 µM) [%] | % α-Glucosidase Inhibition (α-glucosidase; 125 µM) [%] | % α-Glucosidase Inhibition (α-glucosidase; 250 µM) [%] | % α-Glucosidase Inhibition (α-glucosidase; 500 µM) [%] | IC50 (α-amylase) [µM] | inhibition at 31.25 µM (α-amylase; [1]) [%] | inhibition at 62.5 µM (α-amylase; [2]) [%] | inhibition at 125 µM (α-amylase; [3]) [%] | inhibition at 250 µM (α-amylase; [4]) [%] | inhibition at 500 µM (α-amylase; [5]) [%] | IC50 (PTP1B) [µM] | inhibition at 31.25 µM (PTP1B) [%] | inhibition at 62.5 µM (PTP1B) [%] | inhibition at 125 µM (PTP1B) [%] | inhibition at 250 µM (PTP1B) [%] | inhibition at 500 µM (PTP1B) [%] | inhibition at 31.25 µM (human DPP-4 enzyme) [%] | inhibition at 62.5 µM (human DPP-4 enzyme) [%] | Structure (SMILES) | also measured
3 | 16.5 | 54.56 ± 1.73 | 65.44 ± 0.58 | 72.93 ± 0.67 | 75.58 ± 0.63 | 79.49 ± 0.6 | 21.9 | 54.6 | 57.5 | 72.8 | 77.6 | 82.61 ± 0.77 | 12 | 62.9 | 69.2 | 75.1 | 82.6 | 88.61 ± 0.43 | 67.5 | 72.5 | CC(C)(/C=C1\SC(=O)N(C(=O)CN2CCOCC2)C1=O)[C@@H]1CC(=O)NC1=O [10a] | inhibition at 125 µM (human DPP-4 enzyme): 77.2%; inhibition at 250 µM (human DPP-4 enzyme): 82.5%; inhibition at 500 µM (human DPP-4 enzyme): 87.45 ± 0.59%; IC50 (human DPP-4 enzyme): 5.38 µM
4 | 27.4 | 51.72 ± 0.66 | 57.68 ± 0.49 | 70.60 ± 0.46 | 75.62 ± 0.40 | 79.48 ± 0.74 | 21.2 | 48.5 | 65.5 | 70.5 | 74.7 | 79.37 ± 0.69 | 16.8 | 57.2 | 65.8 | 72.8 | 77.1 | 85.3 ± 2.87 | 54.3 | 62.7 | CN1C(=O)C[C@@H](C(C)(C)/C=C2\SC(=O)N(C(=O)CN3CCOCC3)C2=O)C1=O [10b] | inhibition at 125 µM (human DPP-4 enzyme): 69.4%; inhibition at 250 µM (human DPP-4 enzyme): 75.8%; inhibition at 500 µM (human DPP-4 enzyme): 81.3 ± 1.42%; IC50 (human DPP-4 enzyme): 20.5 µM
5 | 25.6 | 62.72 ± 1.01 | 65.08 ± 0.47 | 71.42 ± 0.43 | 76.58 ± 1.12 | 81.53 ± 0.71 | 28.3 | 62.4 | 67.6 | 74.3 | 81.7 | 88.6 ± 1.12 | 19 | 53.5 | 63.4 | 69.3 | 73.4 | 79.4 ± 1.04 | 57.4 | 62.6 | CC(C)(/C=C1\SC(=O)N(C(=O)CN2CCOCC2)C1=O)[C@@H]1CC(=O)N(c2ccccc2)C1=O [10c] | inhibition at 125 µM (human DPP-4 enzyme): 67.4%; inhibition at 250 µM (human DPP-4 enzyme): 72.6%; inhibition at 500 µM (human DPP-4 enzyme): 77.4 ± 1.51%; IC50 (human DPP-4 enzyme): 12.9 µM
6 | 13.2 | 52.58 ± 0.63 | 74.94 ± 1.13 | 79.84 ± 0.30 | 81.08 ± 0.47 | 86.44 ± 0.58 | 9.66 | 73.4 | 78.2 | 82.5 | 88.6 | 92.7 ± 1.3 | 19.5 | 56.4 | 63.5 | 67.2 | 75.8 | 83.51 ± 0.54 | 61.3 | 67.3 | COc1ccc(N2C(=O)C[C@@H](C(C)(C)/C=C3\SC(=O)N(C(=O)CN4CCOCC4)C3=O)C2=O)cc1 [10e] | inhibition at 125 µM (human DPP-4 enzyme): 74.5%; inhibition at 250 µM (human DPP-4 enzyme): 82.5%; inhibition at 500 µM (human DPP-4 enzyme): 88.5 ± 2.06%; IC50 (human DPP-4 enzyme): 14.7 µM
